Data as given in patent US12473289B2, “Heterocyclic compounds as delta-5 desaturase inhibitors and methods of use” (Amgen Inc., priority 2019, dated 2025).

How the values were obtained:
Delta-5-Desaturase (D5D) [1] = target: Delta-5-Desaturase (D5D) (Homo sapiens (Human), UniProt O60427); test: In vitro measurement of Delta-5-Desaturase inhibitory activity using DGLA-CoA and Arachidonyl-CoA mass spectrometric assays; assay type: biochemical; details: membrane preparations of D5D-overexpressing HEK293 6E cells; averaged over at least two independent runs
Chain of Delta-5-Desaturase (D5D) (Homo sapiens (Human), UniProt O60427) (O60427 whole entry, species assumed): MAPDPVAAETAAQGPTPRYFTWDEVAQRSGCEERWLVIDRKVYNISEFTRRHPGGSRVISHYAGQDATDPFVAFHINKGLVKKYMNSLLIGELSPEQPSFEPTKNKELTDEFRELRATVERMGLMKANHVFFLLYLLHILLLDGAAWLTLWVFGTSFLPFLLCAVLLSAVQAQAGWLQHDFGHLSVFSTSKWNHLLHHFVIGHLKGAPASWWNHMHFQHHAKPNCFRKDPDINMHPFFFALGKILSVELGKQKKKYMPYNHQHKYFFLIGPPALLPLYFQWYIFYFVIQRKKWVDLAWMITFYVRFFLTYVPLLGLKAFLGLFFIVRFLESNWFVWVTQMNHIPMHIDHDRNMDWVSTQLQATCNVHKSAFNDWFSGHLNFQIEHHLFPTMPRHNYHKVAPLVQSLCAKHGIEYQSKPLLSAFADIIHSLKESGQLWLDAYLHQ
Outline: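 Membranes from D5D-overexpressing HEK293 6E cells (10 μg/mL final) in Tris pH 7.5 with MgCl2, octyl glucoside and TCEP were mixed 1:1 with substrate solution (0.01 mM DGLA, 0.25 mM NADH, 0.25 mM ATP, 0.05 mM CoA) for 1 h at ambient temperature. RapidFire SPE-MS/MS MRM; IC50 by 4-parameter fit, ≥2 runs.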

Delta-5-Desaturase (D5D) [2] = target: Delta-5-Desaturase (D5D) (Mus musculus (Mouse), UniProt Q920L1); test: In vivo measurement of Delta-5-Desaturase inhibitory activity (plasma AA/DGLA ratio in DIO mice); details: single oral dose 30 mg/kg, read-out: Average % D5D Inhibition expressed as Plasma Endogenous AA/DGLA Ratio
Chain of Delta-5-Desaturase (D5D) (Mus musculus (Mouse), UniProt Q920L1) (Q920L1 whole entry): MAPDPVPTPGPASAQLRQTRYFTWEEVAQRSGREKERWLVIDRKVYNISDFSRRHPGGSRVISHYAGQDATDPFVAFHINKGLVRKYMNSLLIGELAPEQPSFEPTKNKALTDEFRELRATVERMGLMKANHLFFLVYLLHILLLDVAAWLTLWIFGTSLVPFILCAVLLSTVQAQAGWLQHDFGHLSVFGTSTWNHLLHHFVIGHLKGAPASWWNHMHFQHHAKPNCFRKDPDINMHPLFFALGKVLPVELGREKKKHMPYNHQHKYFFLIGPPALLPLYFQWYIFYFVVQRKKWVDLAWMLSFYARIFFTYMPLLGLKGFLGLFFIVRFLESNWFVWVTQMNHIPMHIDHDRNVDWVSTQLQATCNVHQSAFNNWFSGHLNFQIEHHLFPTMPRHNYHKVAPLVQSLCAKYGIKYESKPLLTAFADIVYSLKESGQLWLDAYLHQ
Protocol: In vivo Measurement of Delta-5-Desaturase Inhibitory Activity
Diet-induced obese (DIO; Jackson Laboratories strain #3800050) mice were used to screen for pharmacodynamic (PD) activity of test compounds. Generally, 14 to 24 week old DIO mice, were administered test compounds formulated in the vehicle of 2% hydroxypropyl methylcellulose (HPMC) and 1% Tween80. Animals were dosed on body weight by oral gavage with a single dose (30 mg/kg) for PD studies. Necropsy included plasma collection for PUFA analysis. 10 μl of plasma or standards diluted in surrogate matrix (65 g/l bovine serum albumin in Dulbecco's phosphate-buffered saline) were mixed with 10 μl of an internal standard (100 μM alpha-linolenic acid-d14 (ALA-d14, Cayman Chemical)) in a 96 well plate. 100 μl of 2N NAOH was added to the mixture for subsequent saponification at 65° C. for 1 hour. The mixture was then acidified with 50 μl of formic acid followed by two consecutive hexane extractions. Hexane (500 μl) was added and the mixture thoroughly mixed by vortexing, followed by centrifugation at 4,000 rpm for 15 min. The hexane phase was transferred to a new 1 ml 96 well plate and the remaining aqueous layer was extracted with hexane. The organic extracts were combined and the solvent was removed by placing the plate under nitrogen gas at 55° C. 250 μl of 90% methanol was added to the plate followed by vortexing for 2 minutes. 200 μl of the samples were transferred to a new 96 well polypropylene plate. The samples were analyzed on a LC-MS/MS for the following PUFAs: arachidonic acid (AA), dihomo-gamma-linolenic acid (DGLA), with ALA-d14 as the internal standard. Description of the LC-MS/MS method: 5 μl of sample was injected onto a Poroshell 120 EC-C18 3.0×50 mm, 1.9 μm id column. […] The PUFA peak areas were quantified by using the SCIEX Analyst software. […] The relative decrease of the AA/DGLA ratio of the test compound administered group relative to the vehicle administered group was calculated and used as an index for the degree of D5D inhibition.
The results presented in Table 27 were obtained using certain compounds described herein in the in vivo protocol described above.

SMILES | IC50 (Delta-5-Desaturase (D5D) [1]) [nM] | inhibition in vivo at 30 mg/kg (Delta-5-Desaturase (D5D) [2]) [%]
COc1ccn2c(=O)c(-c3cnn(CC(C)(F)F)c3)c(C(F)(F)F)nc2c1 [Example 1-39, 3-(1-(2,2-difluoropropyl)-1H-pyrazol-4-yl)-8-methoxy-2-(trifluoromethyl)-4H-pyrido[1,2-a]pyrimidin-4-one] | 42.2 | 62
CNc1ccn2c(=O)c(-c3ccc(OCC(F)(F)F)cc3)c(C(F)(F)F)nc2c1 [Example 1-29, 8-(methylamino)-3-(4-(2,2,2-trifluoroethoxy)phenyl)-2-(trifluoromethyl)-4H-pyrido[1,2-a]pyrimidin-4-one] | 7 | 77
COc1ccn2c(=O)c(-c3ccc(OCC(C)(F)F)cc3)c(C(F)(F)F)nc2c1 [Example 9-2, 3-(4-(2,2-difluoropropoxy)phenyl)-8-methoxy-2-(trifluoromethyl)-4H-pyrido[1,2-a]pyrimidin-4-one] | 11.3 | 67
COc1ccn2c(=O)c(-c3ccc(OC(C)(C)C#N)cc3)c(C(F)(F)F)nc2c1 [Example 24, 2-(4-(8-Methoxy-4-oxo-2-(trifluoromethyl)-4H-pyrido[1,2-a]pyrimidin-3-yl)phenoxy)-2-methylpropanenitrile] | 28.9 | 70
COc1ccn2c(=O)c(-c3cnn(CCCC(F)(F)F)c3)c(C(F)(F)F)nc2c1 [Example 1-75, 8-methoxy-3-(1-(4,4,4-trifluorobutyl)-1H-pyrazol-4-yl)-2-(trifluoromethyl)-4H-pyrido[1,2-a]pyrimidin-4-one] | 29.6 | 77
CN(C)c1ccn2c(=O)c(-c3cnn(CC(F)(F)C(F)(F)F)c3)c(C(F)(F)F)nc2c1 [Example 1-22, 8-(dimethylamino)-3-(1-(2,2,3,3,3-pentafluoropropyl)-1H-pyrazol-4-yl)-2-(trifluoromethyl)-4H-pyrido[1,2-a]pyrimidin-4-one] | 121 | 59
COc1ccn2c(=O)c(-c3ccc(OCC(F)(F)F)cc3)c(C3CC3)nc2c1 [Example 1-62, 2-cyclopropyl-8-methoxy-3-(4-(2,2,2-trifluoroethoxy)phenyl)-4H-pyrido[1,2-a]pyrimidin-4-one] | 10.9 | 56
CCOc1nc2cc(OC)ccn2c(=O)c1-c1ccc(OCC(F)(F)F)cc1 [Example 1-81, 2-ethoxy-8-methoxy-3-(4-(2,2,2-trifluoroethoxy)phenyl)-4H-pyrido[1,2-a]pyrimidin-4-one] | 12.9 | 44
COc1ccn2c(=O)c(-c3cnn(CCC(F)(F)F)c3)c(C(F)(F)F)nc2c1 [Example 1-69, 8-methoxy-2-(trifluoromethyl)-3-[1-(3,3,3-trifluoropropyl)pyrazol-4-yl]pyrido[1,2-a]pyrimidin-4-one] | 15.2 | 71
COc1ccn2c(=O)c(-c3ccc(OCC(F)(F)F)cc3)c(C(F)(F)F)nc2c1 [Example 1-44, 8-methoxy-3-(4-(2,2,2-trifluoroethoxy)phenyl)-2-(trifluoromethyl)-4H-pyrido[1,2-a]pyrimidin-4-one] | 3.4 | 76
CNc1ccn2c(=O)c(-c3cnn(CC(F)(F)C(F)(F)F)c3)c(C(F)(F)F)nc2c1 [Example 1-23, 8-(methylamino)-3-(1-(2,2,3,3,3-pentafluoropropyl)-1H-pyrazol-4-yl)-2-(trifluoromethyl)-4H-pyrido[1,2-a]pyrimidin-4-one] | 19.9 | 57
[2H]C([2H])([2H])Oc1ccn2c(=O)c(-c3cnn(CC(F)(F)C(F)(F)F)c3)c(C(F)(F)F)nc2c1 [Example 1-33, 8-(methyloxy-d3)-3-(1-(2,2,3,3,3-pentafluoropropyl)-1H-pyrazol-4-yl)-2-(trifluoromethyl)-4H-pyrido[1,2-a]pyrimidin-4-one] | 17.3 | 84
COc1ccn2c(=O)c(-c3ccc(OCC(F)(F)F)c(F)c3)c(C(F)(F)F)nc2c1 [Example 1-48, 3-(3-fluoro-4-(2,2,2-trifluoroethoxy)phenyl)-8-methoxy-(trifluoromethyl)-4H-pyrido[1,2-a]pyrimidin-4-one] | 5.1 | 66
O=c1c(-c2cnn(CC(F)(F)C(F)(F)F)c2)c(C(F)(F)F)nc2cc(CO)ccn12 [Example 13-1, 8-(Hydroxymethyl)-3-(1-(2,2,3,3,3-pentafluoropropyl)-1H-pyrazol-4-yl)-2-(trifluoromethyl)-4H-pyrido[1,2-a]pyrimidin-4-one] | 23.9 | 52
COc1ccn2c(=O)c(-c3ccc(OCC4CC4)cc3)c(C(F)(F)F)nc2c1 [Example 1-8, 3-(4-(cyclopropylmethoxy)phenyl)-8-methoxy-2-(trifluoromethyl)-4H-pyrido[1,2-a]pyrimidin-4-one] | 5.1 | 62
O=c1c(-c2ccc(OCC(F)(F)F)cc2)c(C(F)(F)F)nc2ccccn12 [Example 1-42, 3-(4-(2,2,2-trifluoroethoxy)phenyl)-2-(trifluoromethyl)-4H-pyrido[1,2-a]pyrimidin-4-one] | 10.4 | 64
Nc1ccn2c(=O)c(-c3ccc(OCC(F)(F)F)cc3)c(C(F)(F)F)nc2n1 [Example 14-2, 8-amino-3-(4-(2,2,2-trifluoroethoxy)phenyl)-2-(trifluoromethyl)-4H-pyrimido[1,2-a]pyrimidin-4-one] | 35.7 | 73
COc1ccn2c(=O)c(-c3ccc(OCC(F)(F)F)cc3C)c(C(F)(F)F)nc2c1 [Example 4-3, 8-methoxy-3-(2-methyl-4-(2,2,2-trifluoroethoxy)phenyl)-2-(trifluoromethyl)-4H-pyrido[1,2-a]pyrimidin-4-one] | 22 | 60
COc1ccn2c(=O)c(-c3ccc(OCC(F)F)cc3)c(C(F)(F)F)nc2c1 [Example 1-10, 3-(4-(2,2-difluoroethoxy)phenyl)-8-methoxy-2-(trifluoromethyl)-4H-pyrido[1,2-a]pyrimidin-4-one] | 7.9 | 75
O=c1ccn2c(=O)c(-c3cnn(CC(F)(F)C(F)(F)F)c3)c(C(F)(F)F)nc2[nH]1 [Example 10-4, 7-(1-(2,2,3,3,3-pentafluoropropyl)-1H-pyrazol-4-yl)-8-(trifluoromethyl)-2H-pyrimido[1,2-a]pyrimidine-2,6(1H)-dione] | 68.4 | 52
COc1ccn2c(=O)c(-c3ccc(OCC(F)(F)F)cc3)c(C(F)(F)F)nc2n1 [Example 1-50, 8-methoxy-3-(4-(2,2,2-trifluoroethoxy)phenyl)-2-(trifluoromethyl)-4H-pyrimido[1,2-a]pyrimidin-4-one] | 16.8 | 73
COc1ccn2c(=O)c(-c3ccc(OCC(F)(F)F)cc3F)c(C(F)(F)F)nc2c1 [Example 1-20, 3-(2-fluoro-4-(2,2,2-trifluoroethoxy)phenyl)-8-methoxy-2-(trifluoromethyl)-4H-pyrido[1,2-a]pyrimidin-4-one] | 8.9 | 78
